For series [1], the target named is Cholinesterase (Equus caballus) (UniProt P81908). Nature of the series: Inhibition of equine serum butyrylcholinesterase at 20 uM using butyrylthiocholine iodide as substrate preincubated for 10 mins followed by substrate addition by Ellman's method relative to control. (In general: Ellman's reagent forms a yellow product with free thiols.)
Series [2] concerns the target Acetylcholinesterase (Homo sapiens) (UniProt P22303). Nature of the series: Inhibition of human erythrocyte acetylcholinesterase at 20 uM using acetylthiocholine iodide as substrate preincubated for 10 mins followed by substrate addition by Ellman's method relative to control.
The target of series [3] is T1, Liver carboxylesterase (Sus scrofa, UniProt Q29550).
T1 sequence (Q29550 whole entry): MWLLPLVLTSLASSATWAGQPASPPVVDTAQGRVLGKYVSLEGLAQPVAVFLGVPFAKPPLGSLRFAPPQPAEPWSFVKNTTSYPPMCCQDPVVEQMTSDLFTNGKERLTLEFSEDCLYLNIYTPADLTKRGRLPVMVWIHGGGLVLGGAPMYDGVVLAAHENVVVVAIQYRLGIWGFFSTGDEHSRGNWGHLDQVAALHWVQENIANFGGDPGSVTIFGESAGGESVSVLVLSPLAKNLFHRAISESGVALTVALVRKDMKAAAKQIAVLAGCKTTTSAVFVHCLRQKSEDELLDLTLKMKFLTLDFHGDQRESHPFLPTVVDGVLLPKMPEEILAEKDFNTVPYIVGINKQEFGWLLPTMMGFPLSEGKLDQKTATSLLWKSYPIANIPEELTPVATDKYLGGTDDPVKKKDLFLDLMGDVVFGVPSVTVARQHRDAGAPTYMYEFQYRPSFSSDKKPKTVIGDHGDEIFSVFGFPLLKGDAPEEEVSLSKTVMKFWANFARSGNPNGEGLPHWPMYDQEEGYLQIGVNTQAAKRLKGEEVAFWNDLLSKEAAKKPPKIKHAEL
Description: Inhibition of porcine liver carboxylesterase using 4-nitrophenol acetate as substrate preincubated for 10 mins followed by substrate addition by spectrophotometric analysis

Series [4] addresses T1, Liver carboxylesterase. Nature of the series: Non-competitive inhibition of porcine liver carboxylesterase using varying levels of 4-nitrophenol acetate as substrate preincubated for 10 mins followed by substrate addition by Lineweaver-Burk plot analysis. Particulars: pig.
Series [5] deals with T1, Liver carboxylesterase. The experiment in a line: Competitive inhibition of porcine liver carboxylesterase using varying levels of 4-nitrophenol acetate as substrate preincubated for 10 mins followed by substrate addition by Lineweaver-Burk plot analysis.
Series [6] deals with T1, Liver carboxylesterase. The experiment in a line: Reversible mixed-type inhibition of porcine liver carboxylesterase at 0.1 to 0.6 uM using varying levels of 4-nitrophenol acetate as substrate preincubated for 10 mins followed by substrate addition by Lineweaver-Burk double-reciprocal plot analysis. Particulars: pig.
Series [7] is described as follows: Acute toxicity in CD-1 mouse assessed as mouse survival up to 300 mg/kg, ip measured for 14 days. In kind it is organism-based. The conditions noted are these: in vivo.
Series [8] has as its target T1, Liver carboxylesterase. Nature of the series: Reversible mixed-type inhibition of porcine liver carboxylesterase at 0.5 to 2 uM using varying levels of 4-nitrophenol acetate as substrate preincubated for 10 mins followed by substrate addition by Lineweaver-Burk double-reciprocal plot analysis. The conditions noted are these: pig.
In series [9] the target is T1, Liver carboxylesterase. The experiment in a line: in vitro. Particulars: pig, porcine liver carboxylesterase, probe 4-nitrophenol acetate.
Description: Inhibition of porcine liver carboxylesterase at 20 uM using 4-nitrophenol acetate as substrate preincubated for 10 mins followed by substrate addition by spectrophotometric analysis relative to control
Series [10] concerns the target T1, Liver carboxylesterase. Nature of the series: Reversible mixed-type inhibition of porcine liver carboxylesterase at 5 to 20 uM using varying levels of 4-nitrophenol acetate as substrate preincubated for 10 mins followed by substrate addition by Lineweaver-Burk double-reciprocal plot analysis. The conditions noted are these: pig.

Molecules are shown by their SMILES. Active and inactive are the calls of the source. The rule behind the calls is not given here.

Cholinesterase (Equus caballus), sequence (P81908 whole entry): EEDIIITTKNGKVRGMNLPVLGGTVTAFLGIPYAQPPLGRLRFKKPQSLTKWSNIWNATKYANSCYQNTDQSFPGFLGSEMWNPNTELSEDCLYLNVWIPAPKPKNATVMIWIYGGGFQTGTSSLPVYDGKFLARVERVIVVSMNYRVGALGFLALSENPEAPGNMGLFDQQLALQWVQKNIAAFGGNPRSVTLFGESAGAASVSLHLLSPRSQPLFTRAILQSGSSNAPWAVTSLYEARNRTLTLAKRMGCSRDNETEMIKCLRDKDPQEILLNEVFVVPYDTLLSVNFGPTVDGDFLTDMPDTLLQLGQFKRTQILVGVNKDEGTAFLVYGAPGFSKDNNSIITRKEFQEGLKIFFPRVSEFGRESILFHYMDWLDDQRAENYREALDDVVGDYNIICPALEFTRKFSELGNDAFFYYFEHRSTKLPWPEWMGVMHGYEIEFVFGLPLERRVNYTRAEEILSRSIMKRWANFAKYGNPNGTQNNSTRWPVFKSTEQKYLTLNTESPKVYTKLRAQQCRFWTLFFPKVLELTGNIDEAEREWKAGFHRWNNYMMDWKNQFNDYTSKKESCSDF
Acetylcholinesterase (Homo sapiens), sequence (P22303 whole entry): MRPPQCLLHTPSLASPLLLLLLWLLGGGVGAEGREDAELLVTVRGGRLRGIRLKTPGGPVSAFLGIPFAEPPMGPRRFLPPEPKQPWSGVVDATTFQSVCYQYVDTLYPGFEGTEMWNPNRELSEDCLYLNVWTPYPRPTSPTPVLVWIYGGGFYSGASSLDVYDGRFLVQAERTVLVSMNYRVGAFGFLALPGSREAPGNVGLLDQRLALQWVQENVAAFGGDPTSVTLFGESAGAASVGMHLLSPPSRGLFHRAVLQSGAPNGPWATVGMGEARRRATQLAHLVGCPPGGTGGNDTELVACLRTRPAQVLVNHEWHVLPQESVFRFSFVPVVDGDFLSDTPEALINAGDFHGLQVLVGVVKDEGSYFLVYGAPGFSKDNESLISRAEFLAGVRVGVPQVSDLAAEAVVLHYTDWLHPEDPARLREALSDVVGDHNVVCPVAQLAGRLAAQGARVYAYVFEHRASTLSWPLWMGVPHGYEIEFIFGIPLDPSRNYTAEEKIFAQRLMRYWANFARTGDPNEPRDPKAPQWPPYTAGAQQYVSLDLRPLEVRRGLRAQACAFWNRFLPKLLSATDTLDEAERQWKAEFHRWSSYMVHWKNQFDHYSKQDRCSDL

As usually defined, the inhibition is the change of the read-out against control, counted positive when it falls. The IC50 is the concentration that gives 50% inhibition. Read a low IC50 as greater potency in that assay. For `COC(=O)C1=NNc2nnnn2C1(O)C(F)(F)C(F)F` (stereo not drawn), the inhibition entry in series [1] and in [2] was “inactive” throughout. On Liver carboxylesterase [3], this molecule displayed an IC50 of 12.3 µM.

As usually defined, the Ki is a dissociation constant, usually derived from enzyme kinetics or from competition with a known ligand. Low readings indicate tighter binding, high ones weaker binding. Regarding `COC(=O)C1=NNc2cc(-c3ccccc3)nn2C1(O)C(F)(F)C(F)(F)C(F)(F)C(F)(F)F` (stereo not drawn), the alphaKi on Liver carboxylesterase [4] stood at 1.6 µM. Moreover, the inhibition was 11.6% in [1] and 11.7% in series [2]. At Liver carboxylesterase [5], this molecule had a Ki of 0.7 µM. This molecule registered an IC50 at Liver carboxylesterase [3] of 0.96 µM.

For `CCOC(=O)C1=NNc2cc(-c3ccccc3)nn2C1(O)C(F)(F)C(F)(F)C(F)(F)C(F)(F)F` (stereo not drawn), at Liver carboxylesterase [4], the alphaKi was 0.69 µM. In addition, in series [1], the inhibition is 16.2%. Also, in series [2], the inhibition result is “inactive”. Besides, the “inhibition (INH)” value against Liver carboxylesterase [6] is “Active”. The survival at 336 h in series [7] was found to be 100%. In addition, on Liver carboxylesterase [5], the affinity corresponds to a Ki of 0.23 µM. At Liver carboxylesterase [3], this molecule displayed an IC50 of 0.46 µM.

For the molecule `O=[N+]([O-])c1ccc(OP(=O)(O)Oc2ccc([N+](=O)[O-])cc2)cc1`, the inhibition result in series [1] and in [2] was “inactive” throughout. Further, the IC50 against Liver carboxylesterase [3] worked out at 1.8 µM.

For `CCOC(=O)C1=NNc2cc(C)nn2C1(O)C(F)(F)C(F)(F)C(F)(F)C(F)(F)F` (stereo not drawn), the values for the inhibition in series [1] and in [2] were 6% and 3%, respectively. For the same molecule, in series [7], the survival at 336 h amounted to 100%. The molecule further returned an IC50 at Liver carboxylesterase [3] of 1.44 µM.

Take `COC(=O)C1=NNc2nnnn2C1(O)C(F)(F)F` (stereo not drawn): the inhibition in [1] came to 4.1%. In series [2], the inhibition entry is “inactive”. This molecule also showed an IC50 on Liver carboxylesterase [3] of 58.6 µM.

`CCOC(=O)C1=NNc2nnnn2C1(O)C(F)(F)F` (stereo not drawn): the inhibition entry in [1] and in series [2] was “inactive” each time. The same molecule came in with an IC50 on Liver carboxylesterase [3] of 13.6 µM.

Regarding `COC(=O)C1=NNc2nnnn2C1(O)C(F)(F)C(F)(F)C(F)(F)C(F)(F)F` (stereo not drawn), on Liver carboxylesterase [8], the “inhibition (INH)” value is recorded as “Active”. For the same molecule, on Liver carboxylesterase [4], the alphaKi is 1.74 µM. Besides, the inhibition result in series [1] and in series [2] was “inactive” in each case. Moreover, the survival at 336 h in [7] is 100%. Further, affinity at Liver carboxylesterase [5] was put at a Ki of 0.57 µM. Further, at Liver carboxylesterase [3], 1.31 µM corresponded to half-maximal inhibition (IC50).

Take `CCOC(=O)C1=NNc2cc(C)nn2C1(O)C(F)(F)F` (stereo not drawn): the inhibition in series [1] came out at 7.3%. The inhibition result in [2] is “inactive”. The molecule also yielded an IC50 at Liver carboxylesterase [3] of 48.3 µM.

For `CCOC(=O)C1=NNc2c(C(=O)OCC)cnn2C1(O)C(F)(F)F` (stereo not drawn), the inhibition in series [1] was determined as 8.5%. For the same molecule, in series [2], the inhibition result was “inactive”. Also, the inhibition at 20 µM on Liver carboxylesterase [9] turned out to be 9.3%.

Take `CCOC(=O)C1=NNc2c(C(=O)OCC)ncn2C1(O)C(F)(F)F` (stereo not drawn): the inhibition entry in series [1] and in series [2] was “inactive” throughout. At Liver carboxylesterase [3], this molecule came in with an IC50 of 34.4 µM.

`CCOC(=O)c1cnn2c1NN=C(C(=O)OC)C2(O)C(F)(F)C(F)(F)C(F)(F)F` (stereo not drawn): the inhibition entry in series [1] and in series [2] was “inactive” each time. Further, the IC50 against Liver carboxylesterase [3] worked out at 38.2 µM.

For the molecule `COC(=O)C1=NNc2nnnn2C1(O)C(F)(F)C(F)(F)C(F)(F)F` (stereo not drawn), the inhibition result in [1] and in series [2] was “inactive” each time. For the same molecule, it took 3.29 µM to reach half-maximal inhibition against Liver carboxylesterase [3] (IC50).

`O=C(C1=NNc2ncnn2C1(O)C(F)(F)C(F)(F)C(F)(F)F)c1ccccc1` (stereo not drawn): the inhibition result in series [1] and in series [2] was “inactive” throughout. 53.4 µM corresponded to half-maximal inhibition against Liver carboxylesterase [3] (IC50).

Take `COC(=O)C1=NNc2ncnn2C1(O)C(F)(F)C(F)(F)C(F)(F)C(F)(F)F` (stereo not drawn): the alphaKi at Liver carboxylesterase [4] turned out to be 23.4 µM. The inhibition entry in series [1] and in [2] was “inactive” each time. Also, on Liver carboxylesterase [10], the “inhibition (INH)” value is recorded as “Active”. Further, at Liver carboxylesterase [5], the Ki came out at 6.51 µM. On Liver carboxylesterase [3], this molecule displayed an IC50 of 10.7 µM.

As for `CCOC(=O)C1=NNc2ncnn2C1(O)C(F)(F)F` (stereo not drawn), the inhibition result in series [1] and in series [2] was “inactive” each time. Besides, on Liver carboxylesterase [3], the concentration for half-maximal inhibition (IC50) was determined as 3.6 µM.

The molecule `CCOC(=O)C1=NNc2ncnn2C1(O)C(F)(F)C(F)(F)C(F)(F)C(F)(F)F` (stereo not drawn) gave an inhibition in [1] of 3.7%. For the same molecule, the inhibition entry in series [2] is “inactive”. On Liver carboxylesterase [3], this molecule showed an IC50 of 0.98 µM.

`CCOC(=O)C1=NNc2cc(-c3ccccc3)nn2C1(O)C(F)(F)C(F)(F)F` (stereo not drawn) gave an alphaKi at Liver carboxylesterase [4] of 3.52 µM. For the same molecule, the inhibition in series [1] is 22%; in [2] it was 13.6%. Further, the survival at 336 h in series [7] stood at 100%. Besides, the affinity on Liver carboxylesterase [5] corresponds to a Ki of 1.61 µM. The same molecule returned an IC50 at Liver carboxylesterase [3] of 3.91 µM.

Regarding `CCOC(=O)C1=NNc2cc(-c3ccccc3)nn2C1(O)C(F)(F)F` (stereo not drawn), in series [1], the inhibition entry was “inactive”. For the same molecule, the inhibition in series [2] was determined as 3.8%. This molecule came in with an IC50 against Liver carboxylesterase [3] of 16.4 µM.

Consider `CCOC(=O)C1=NNc2nnnn2C1(O)C(F)(F)C(F)(F)C(F)(F)C(F)(F)F` (stereo not drawn), for which the inhibition entry in series [1] and in [2] was “inactive” in each case. The IC50 against Liver carboxylesterase [3] amounted to 0.83 µM.

On to `CCOC(=O)c1nnc(N)nc1C(F)(F)F`, for which the inhibition result in series [1] and in [2] was “inactive” each time. Moreover, half-maximal inhibition on Liver carboxylesterase [3] (IC50) was put at 3.9 µM.

Take `O=C(C1=NNc2nnnn2C1(O)C(F)(F)F)c1ccccc1` (stereo not drawn): the inhibition entry in series [1] and in series [2] was “inactive” throughout. The molecule also had an IC50 against Liver carboxylesterase [3] of 17.2 µM.

The record behind these values is ChEMBL document CHEMBL4052659, “Synthesis, molecular docking, and biological activity of polyfluoroalkyl dihydroazolo[5,1-c][1,2,4]triazines as selective carboxylesterase inhibitors” (Bioorg Med Chem, 2017).
